Laboratory results as given in ChEMBL document CHEMBL5260852, “Long-Acting Tumor-Activated Prodrug of a TGFβR Inhibitor” (J Med Chem, 2021).
Values belong to the compound of their own block, whether it stands above or below them. Numbered stars: 1 amine (or outer) side, 2 acyl side, 3 side chain; on linkers, the order of the positions; unused ones are H or OH. Square brackets hold non-standard residues; d marks the D form. Peptide text beside a SMILES is read from it. * marks the point of attachment. X1 = N#Cc1cnc2ccc(-c3c(-c4ccc(F)c(Cl)c4)ncn3CCOCN*)nn12; C18 diacid = O=C(O)CCCCCCCCCCCCCCCCC(=O)*; γGlu = O=C(O)[C@H](CCC(=O)[*:2])N[*:1]; PABC = O=C(OCc1ccc(N[*:1])cc1)[*:2]; AEEA = NCCOCCOCC(=O)O

Experiments:
[1] = Prodrug conversion in blood of C57BL/6 mouse xenografted mouse MC38 cells assessed as BMS-986260 Tmax at 8 mg/kg,iv and measured after 48 hrs by LC-MS/MS analysis; type: ADME, organism-based, MC-38; settings: in vivo
[2] = Prodrug conversion in blood of C57BL/6 mouse xenografted mouse MC38 cells assessed as BMS-986260 AUC (0 to 48 hrs) at 8 mg/kg,iv and measured after 48 hrs by LC-MS/MS analysis; type: ADME, organism-based, MC-38; set-up: dose 8 mg/kg, time 48 hrs, route iv; settings: in vivo
[3] = Prodrug conversion in tumor of C57BL/6 mouse xenografted mouse MC38 cells assessed as BMS-986260 Tmax at 8 mg/kg,iv and measured after 48 hrs by LC-MS/MS analysis; type: ADME, organism-based, Neoplasm, MC-38; settings: in vivo
[4] = Prodrug conversion in heart of C57BL/6 mouse xenografted mouse MC38 cells assessed as BMS-986260 Tmax at 8 mg/kg,iv and measured after 48 hrs by LC-MS/MS analysis; type: ADME, organism-based, MC-38; settings: in vivo
[5] = Prodrug conversion in blood of C57BL/6 mouse xenografted mouse MC38 cells assessed as BMS-986260 Cmax at 8 mg/kg,iv and measured after 48 hrs by LC-MS/MS analysis; type: ADME, organism-based, MC-38; set-up: time 48 hrs, dose 8 mg/kg, route iv; settings: in vivo
[6] = Drug concentration in C57BL/6 mouse plasma at 6 mg/kg,iv and measured after 24 hrs by LC-MS/MS analysis; type: ADME, organism-based
[7] = Prodrug conversion in heart of C57BL/6 mouse xenografted mouse MC38 cells assessed as BMS-986260 AUC (0 to 48 hrs) at 8 mg/kg,iv and measured after 48 hrs by LC-MS/MS analysis; type: ADME, organism-based, MC-38; set-up: time 48 hrs, dose 8 mg/kg, route iv; settings: in vivo
[8] = AUC in C57BL/6 mouse plasma at 6 mg/kg,iv and measured upto 24 hrs by LC-MS/MS analysis; type: ADME, organism-based; set-up: dose 6 mg/kg, time < 24 hrs, route iv
[9] = Prodrug conversion in C57BL/6 mouse xenografted mouse MC38 cells assessed as BMS-986260 ratio of AUC in tumor to blood at 8 mg/kg,iv and measured after 48 hrs by LC-MS/MS analysis; type: ADME, organism-based, MC-38; settings: tumour
[10] = Stability in rat plasma assessed as parent compound remaining after 24 hrs by HPLC-MS analysis; type: ADME, cell-free; settings: read-out: Stability
[11] = Prodrug conversion in tumor of C57BL/6 mouse xenografted mouse MC38 cells assessed as BMS-986260 AUC (0 to 48 hrs) at 8 mg/kg,iv and measured after 48 hrs by LC-MS/MS analysis; type: ADME, organism-based, Neoplasm, MC-38; set-up: dose 8 mg/kg, time 48 hrs, route iv; settings: in vivo
[12] = Prodrug conversion in C57BL/6 mouse xenografted mouse MC38 cells assessed as BMS-986260 ratio of AUC in heart to blood at 8 mg/kg,iv and measured after 48 hrs by LC-MS/MS analysis; type: ADME, organism-based, MC-38; settings: other tissue
[13] = Stability in mouse plasma assessed as parent compound remaining after 24 hrs by HPLC-MS analysis; type: ADME, cell-free; settings: read-out: Stability
[14] = Prodrug conversion in tumor of C57BL/6 mouse xenografted mouse MC38 cells assessed as BMS-986260 Cmax at 8 mg/kg,iv and measured after 48 hrs by LC-MS/MS analysis; type: ADME, organism-based, Neoplasm, MC-38; set-up: dose 8 mg/kg, time 48 hrs, route iv; settings: in vivo
[15] = Prodrug conversion in C57BL/6 mouse xenografted mouse MC38 cells assessed as BMS-986260 ratio of AUC in tumor to heart at 8 mg/kg,iv and measured after 48 hrs by LC-MS/MS analysis; type: ADME, organism-based, MC-38; settings: in vivo
[16] = Prodrug conversion in heart of C57BL/6 mouse xenografted mouse MC38 cells assessed as BMS-986260 Cmax at 8 mg/kg,iv and measured after 48 hrs by LC-MS/MS analysis; type: ADME, organism-based, MC-38; set-up: time 48 hrs, dose 8 mg/kg, route iv; settings: in vivo
[17] = Tmax in C57BL/6 mouse tumor xenografted mouse MC38 cells at 1.88 mg/kg,iv and measured after 72 hrs by LC-MS/MS analysis; type: ADME, organism-based, Neoplasm, MC-38
[18] = Ratio of AUC in tumor to heart in C57BL/6 mouse xenografted mouse MC38 cells at 1.88 mg/kg,iv and measured after 72 hrs by LC-MS/MS analysis; type: ADME, organism-based; settings: in vivo
[19] = Tmax in C57BL/6 mouse blood xenografted mouse MC38 cells at 1.88 mg/kg,iv and measured after 72 hrs by LC-MS/MS analysis; type: ADME, organism-based, MC-38
[20] = AUC (0 to 72 hrs) in C57BL/6 mouse tumor xenografted mouse MC38 cells at 1.88 mg/kg,iv and measured after 72 hrs by LC-MS/MS analysis; type: ADME, organism-based, Neoplasm, MC-38; set-up: dose 1.88 mg/kg, time 72 hrs, route iv
[21] = AUC (0 to 24 hrs) in rat at 3 mg/kg,iv for 3 months; type: ADME, organism-based; set-up: time 3 months, dose 3 mg/kg, route iv; settings: in vivo
[22] = AUC (0 to 72 hrs) in C57BL/6 mouse blood xenografted mouse MC38 cells at 1.88 mg/kg,iv and measured after 72 hrs by LC-MS/MS analysis; type: ADME, organism-based, MC-38; set-up: dose 1.88 mg/kg, time 72 hrs, route iv
[23] = Cmax in C57BL/6 mouse tumor xenografted mouse MC38 cells at 1.88 mg/kg,iv and measured after 72 hrs by LC-MS/MS analysis; type: ADME, organism-based, Neoplasm, MC-38; set-up: dose 1.88 mg/kg, time 72 hrs, route iv
[24] = Ratio of AUC in tumor to blood in C57BL/6 mouse xenografted mouse MC38 cells at 1.88 mg/kg,iv and measured after 72 hrs by LC-MS/MS analysis; type: ADME, organism-based; settings: read-out: Ratio AUC
[25] = Ratio of AUC in heart to blood in C57BL/6 mouse xenografted mouse MC38 cells at 1.88 mg/kg,iv and measured after 72 hrs by LC-MS/MS analysis; type: ADME, organism-based; settings: read-out: Ratio AUC
[26] = AUC (0 to 72 hrs) in C57BL/6 mouse heart xenografted mouse MC38 cells at 1.88 mg/kg,iv and measured after 72 hrs by LC-MS/MS analysis; type: ADME, organism-based, MC-38; set-up: time 72 hrs, dose 1.88 mg/kg, route iv
[27] = Cmax in C57BL/6 mouse heart xenografted mouse MC38 cells at 1.88 mg/kg,iv and measured after 72 hrs by LC-MS/MS analysis; type: ADME, organism-based, MC-38; set-up: time 72 hrs, dose 1.88 mg/kg, route iv
[28] = Tmax in C57BL/6 mouse heart xenografted mouse MC38 cells at 1.88 mg/kg,iv and measured after 72 hrs by LC-MS/MS analysis; type: ADME, organism-based, MC-38
[29] = Cmax in C57BL/6 mouse xenografted with mouse MC38 cells at 3.75 mg/kg,iv and measured after 4 weeks by LC-MS/MS analysis; type: ADME, organism-based, MC-38; set-up: dose 3.75 mg/kg, time 4 weeks, route iv; settings: in vivo
[30] = Cmax in C57BL/6 mouse blood xenografted mouse MC38 cells at 1.88 mg/kg,iv and measured after 72 hrs by LC-MS/MS analysis; type: ADME, organism-based, MC-38; set-up: time 72 hrs, dose 1.88 mg/kg, route iv
[31] = AUC (0 to 72 hrs) in C57BL/6 mouse xenografted with mouse MC38 cells at 3.75 mg/kg,iv and measured after 4 weeks by LC-MS/MS analysis; type: ADME, organism-based, MC-38; set-up: dose 3.75 mg/kg, time 4 weeks, route iv; settings: in vivo

Tmax [1]: 4 h
AUC [2]: 3 µM·h
Tmax [3]: 1 h
Tmax [4]: 8 h
Cmax [5]: 160 nM
concentration at 24 h [6]: > 1000 nM
AUC [7]: 5.4 µM·h
AUC at 24 h [8]: 348 µM·h
Ratio AUC [9]: 2.2
remaining at 24 h [10]: 84%
AUC [11]: 6.6 µM·h
Ratio AUC [12]: 1.8
remaining at 24 h [13]: 79%
Cmax [14]: 470 nM
Ratio AUC [15]: 1.2
Cmax [16]: 300 nM
Structure (SMILES): CC(C)C[C@H](NC(=O)COCCOCCNC(=O)COCCOCCNC(=O)CC[C@H](NC(=O)CCCCCCCCCCCCCCCCC(=O)O)C(=O)O)C(=O)N[C@@H](CO)C(=O)NCC(=O)N[C@@H](CCCCN)C(=O)Nc1ccc(COC(=O)NCOCCn2cnc(-c3ccc(F)c(Cl)c3)c2-c2ccc3ncc(C#N)n3n2)cc1 ({C18 diacid-γGlu-AEEA-AEEA}-LSGK[PABC]-X1)

Tmax [17]: 1 h
Ratio AUC [18]: 0.61
Tmax [19]: 1 h
AUC(0-t) at 72 h [20]: 6.1 µM·h
AUC(0-t) at 2190 h [21]: 27 µM·h
AUC(0-t) at 72 h [22]: 5.8 µM·h
Cmax [23]: 1500 nM
Kp at 72 h [24]: 1.1
Kp at 72 h [25]: 1.7
AUC(0-t) at 72 h [26]: 10 µM·h
Cmax [27]: 2500 nM
Tmax [28]: 1 h
Cmax [29]: 1500 nM
Cmax [30]: 1400 nM
AUC(0-t) at 672 h [31]: 39 µM·h
Structure (SMILES): N#Cc1cnc2ccc(-c3c(-c4ccc(F)c(Cl)c4)ncn3CCO)nn12

concentration at 24 h [6]: 5200 nM
AUC at 24 h [8]: 270 µM·h
remaining at 24 h [10]: 76%
remaining at 24 h [13]: 91%
Structure (SMILES): CC(C)C[C@H](NC(=O)COCCOCCNC(=O)COCCOCCNC(=O)COCCOCCNC(=O)CC[C@H](NC(=O)CCCCCCCCCCCCCCCCC(=O)O)C(=O)O)C(=O)N[C@@H](CO)C(=O)NCC(=O)N[C@@H](CCCCN)C(=O)Nc1ccc(COC(=O)NCOCCn2cnc(-c3ccc(F)c(Cl)c3)c2-c2ccc3ncc(C#N)n3n2)cc1 ({C18 diacid-γGlu-AEEA-AEEA-AEEA}-LSGK[PABC]-X1)

concentration at 24 h [6]: > 1000 nM
remaining at 24 h [10]: 77%
remaining at 24 h [13]: 84%
Structure (SMILES): CC(C)C[C@H](NC(=O)CC[C@H](NC(=O)CCCCCCCCCCCCCCCCC(=O)O)C(=O)O)C(=O)N[C@@H](CO)C(=O)NCC(=O)N[C@@H](CCCCN)C(=O)Nc1ccc(COC(=O)NCOCCn2cnc(-c3ccc(F)c(Cl)c3)c2-c2ccc3ncc(C#N)n3n2)cc1 ({C18 diacid-γGlu}-LSGK[PABC]-X1)
